Measurements from patent US8501166B2, “Pyrimidinyl indole compounds” (Hutchison Medipharma Limited, priority 2010, dated 2013).
Where a name gives a salt, the structure may show the parent alone.

Experiments:
[1] = test system: HT-29 human colon cancer xenograft; experiment: Anti-tumor effects in human colon cancer HT-29 xenograft with/without CPT-11; type: in vivo, Balb/c nu/nu mice
Experimental: IKKβ inhibitor has been reported to repress the HT-29 tumor growth when in combination with CPT-11 (Lagadec P, Griessinger E, Nawrot M P, et al. Br. J. Cancer (2008) 98, 335-344). The anti-tumor effect of the compound is then examined in a human colon cancer HT-29 xenograft in combination with CPT-11. The compound is tested for its anti-tumor effects in a human colon cancer HT-29 xenograft with/without the co-administration of CPT-11 essentially as described in a method reported in the literature (Lagadec P, Griessinger E, Nawrot M P, et al. Br. J. Cancer (2008) 98, 335-344).
The HT-29 human colorectal adenocarcinoma cell line is obtained from ATCC and cultured in McCoy's 5a medium containing 10% fetal calf serum. Male Balb/c nu/nu mice (6-7 weeks old) are injected subcutaneously in the right lateral flank with 0.1 mL of cell suspension containing 3.0×10^6 cells. Mice are divided into six groups, seven days after cell implantation. The test compound is orally administered twice a day at 60 and 20 mg/kg. CPT-11 at 20 mg/kg is peritoneally administered twice a week. In combination treatment, CPT-11 is given 1 h after the administration of the test compound. […] Two orthogonal diameters of the tumor are measured with digital vernier calipers three times a week. Tumor volume (TV) is measured and recorded during treatment period by the formula: TV=LengthxWidth^2/2. […]

[2] = test system: SKOV-3x-FF-luci human ovarian cancer xenograft; experiment: Anti-tumor effects in SKOV-3x-FF-luci xenograft (21 days); type: in vivo, Balb/c nu/nu mice; conditions: 60 mg/kg, tid, q6 h, oral
Experimental: Anti-tumor Effects in Human Ovarian Cancer SKOV-3x-FF-luci Xenograft SKOV-3x-FF-luci human ovarian cancer line cell line (ATCC) is cultured in McCoy's 5a medium containing 10% fetal calf serum (FCS). Female Balb/c nu/nu mice (6-8 weeks old) are peritoneally injected with 0.2 mL of cell suspension containing 2×10^6 cells. Mice are divided into five groups six days after cell implantation. The test compound at doses of 60, 90 and 150 mg/kg is orally administered to animals for a consecutive 21 days with a twice a day (bid) or three times a day (tid) regimen. Mice in control groups are administered the vehicle (10% Acacia at pH 2.1, bid). At the end of the treatment, all mice are euthanized with CO2 and tumors in the peritoneal cavity, diaphragmatic muscle, mesenterium, liver, spleen, and ovaries are dissected and harvested, and put together for the measurement of their combined weight. Results of tumor weight and inhibition rate (IR) are evaluated. The inhibition rate is calculated with the formula: IR %=(tumor weight in control−tumor weight in drug treated)/tumor weight in control×100%.

[3] = test system: OVA-induced airway inflammation; experiment: OVA-induced pulmonary inflammation in Brown-Norway rats; type: in vivo; conditions: Rattus norvegicus, 480 h; BN rats, 0.3 to 30 mg/kg oral bid, day 20 and 21; read-out: ED50, increase of total cells and eosinophiles in BAL fluids
Experimental: To evaluate the effects of IKKβ inhibitors on antigen-driven airway inflammation in vivo, the compound is also tested in OVA-induced pulmonary inflammation model in rats essentially as described in a method reported in the literature (Yamamoto N, Takeshita K, Shichijo M, Kokubo T, Sato M, Nakashima K, Ishimori M, Nagai H, Li Y F, Yura T, Bacon K B. J Pharm. Exp Ther. 2003; 306(3):1174-81). Briefly, male BN rats weighing from 240 to 260 g are sensitized by intraperitoneal injection of 1 mL of saline containing 1 mg of OVA and 13 mg of aluminum hydroxide on days 1, 2 and 3. Rats serving as normal control received 1 mL of saline instead of OVA. The test compound at doses of 0.3, 1, 3 and 30 mg/kg (bid) is orally administered to rats on day 20 and 21. On day 21 rats are challenged with 1% OVA for 15 minutes with Buxco Mass Dosing System. On day 22, rats are anesthetized with 1% Pentobarbital Sodium. The thoracic and abdominal cavities are opened. Plasma is collected from centrifuged specimens. The trachea is dissected and transected. Through the insertion of an 18-gauge catheter into the trachea, the lungs are lavaged with a total of 15 mL of sterile PBS, and then placed into a specimen container. Cell-free BAL supernatants are obtained by centrifugation of BAL fluids. All serum and BAL supernatants are stored at −80° C. until use. […]

[4] = test system: collagen induced arthritis; experiment: Rat collagen II induced arthritis (CIA) model; type: in vivo, Wistar Rats; conditions: 30 mg/kg oral bid, day 1 to day 21
Experimental: To confirm the results obtained in mouse CIA model, the compound is also tested in a CIA model in rat essentially as described in a method reported in the literature (Rosloniec E F, Cremer M, Kang A, Myers L K. Current Protocols in Immunology. 1996, 15.5.1-15.5.24). Briefly, Wistar Rats are immunized intradermally with 200 μg bovine collagen II emulsified in Freund's […] on day 0 and with 100 μg collagen II emulsified in IFA (incomplete Freund's adjuvant) on day 7. The hind paw volume is measured before and after the immunization. The disease development of four paws is quantified with arthritis scores. Rats in normal and model groups are treated with vehicle or drug (treated group). Rats in treated group are orally administered with the testing compound at doses of 3, 10, 30 mg/kg (bid), from day 1 to day 21 after the first immunization. In the LEF group, as a positive control, rats are orally administered with LEF at a dose of 10 mg/kg, q.d.

With `O=C(NC1CC1)c1cccc2[nH]c(-c3nc(N[C@@H]4CCC[C@@H]4O)ncc3Cl)cc12` [Example 1, 2-{5-Chloro-2-[(1R,2S)-2-hydroxycyclopentylamino]pyrimidin-4-yl}-N-cyclopropyl-1H-indole-4-carboxamide hydrochloride] the “HT-29 tumor growth, combination with CPT-11” value ([1]; 60 or 20 mg/kg p.o. + CPT-11 20 mg/kg i.p., P<0.05) was “enhances the anti-tumor effect of CPT-11”, the “HT-29 tumor growth, single agent” value ([1]; 60 or 20 mg/kg, p.o., twice a day) was “does not inhibit HT-29 tumor growth” and the “Tumor Weight (g) (Mean ± S.D.)” value [2] was 0.509 ± 0.193 g. The “IR (tumor inhibition rate)” value ([2]; hydrochloride) was 76.31%.
In the case of `Cl.O=C(NC1CC1)c1cccc2[nH]c(-c3nc(N[C@@H]4CCC[C@H]4O)ncc3Cl)cc12` [Example 2, 2-{5-Chloro-2-[(1R,2R)-2-hydroxycyclopentylamino]pyrimidin-4-yl}-N-cyclopropyl-1H-indole-4-carboxamide hydrochloride], the ED50 [3] is reported as 0.49 mg/kg and the “arthritis scores and hind paws volume” value [4] is reported as “significantly attenuates collagen induced arthritis”.
